Experiments:
REV-ERBβ = biological target: T1, REV-ERBβ (Homo sapiens, UniProt Q14995); test: TR-FRET corepressor interaction assay (REV-ERBβ, FITC-SMRT peptide); assay type: biochemical; details: Table 2, read-out: REVERBβ agonism (EC50 class, FRET assay)
T1 construct: 6×Histag-REV-ERBα LBD (human; residues 381-579); made in house; host or cells: Escherichia coli
T1 sequence (Q14995 381-579): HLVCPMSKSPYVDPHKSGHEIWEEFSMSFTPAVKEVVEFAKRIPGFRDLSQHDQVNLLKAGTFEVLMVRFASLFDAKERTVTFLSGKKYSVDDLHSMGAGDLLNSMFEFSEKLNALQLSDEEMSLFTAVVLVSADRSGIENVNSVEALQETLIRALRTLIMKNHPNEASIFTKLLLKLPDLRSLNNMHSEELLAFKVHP
Experimental: TR-FRET corepressor interaction assay. The time-resolved fluorescence resonance energy transfer (TR-FRET) assay was performed in black low-volume 384-well plates (Greiner). […] Ligand stocks were prepared via serial dilution in DMSO, added to wells in triplicate, and plates were incubated at 4° C. for 2 h and read using a BioTek Synergy Neo multimode plate reader. The Tb donor was excited at 340 nm; its fluorescence emission was monitored at 495 nm, and the acceptor FITC emission was measured at 520 nm; and the TR-FRET ratio was calculated as the signal at 520 nm divided by the signal at 495 nm. Data were plotted using GraphPad Prism as TR-FRET ratio vs. ligand concentration and fit to sigmoidal dose response curve equation.
Exemplary compounds of the present disclosure were assayed as described above to assess agonism of REV-ERBα and REV-ERBβ.

[1] = biological target: T2, REV-ERBα LBD (human; residues 281-614 Δ324-422) (Homo sapiens, UniProt P20393, DEL324-422); test: TR-FRET corepressor interaction assay (REV-ERBα LBD, FITC-SMRT peptide); assay type: biochemical; details: FITC-SMRT peptide, read-out: REVERBα agonism (EC50 class, FRET assay)
T2 construct: 6×Histag-REV-ERBα LBD (human; residues 281-614 Δ324-422); made in house; host or cells: Escherichia coli
T2 sequence (P20393 with tags, fused parts or gaps DEL324-422): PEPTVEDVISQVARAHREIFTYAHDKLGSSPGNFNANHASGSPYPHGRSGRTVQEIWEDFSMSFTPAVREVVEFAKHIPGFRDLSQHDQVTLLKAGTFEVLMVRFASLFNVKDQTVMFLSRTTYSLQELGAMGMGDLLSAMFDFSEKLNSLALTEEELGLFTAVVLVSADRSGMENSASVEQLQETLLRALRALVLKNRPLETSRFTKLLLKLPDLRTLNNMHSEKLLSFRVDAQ
T2 sequence (Q9Y618 2335-2356 partner limits assumed): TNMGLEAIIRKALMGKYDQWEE
Outline: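 Compound serial dilutions (in DMSO, triplicate) incubated 2 h at 4 °C; Tb donor excited at 340 nm, emission read at 495 nm and FITC acceptor at 520 nm. TR-FRET ratio (520/495 nm) plotted against ligand concentration and fitted to a sigmoidal dose-response curve.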

CC(C)Cn1cc(CCNS(=O)(=O)N(C)C)c2ccc(-c3ccncc3)cc21 [Compound 27, dimethyl({2-[1-(2-methylpropyl)-6-(pyridin-4-yl)-1H-indol-3-yl]ethyl}sulfamoyl)amine]
EC50 (REV-ERBβ): 500 to 3000 nM

CC(C)(C)Cn1cc([C@H](NS(=O)(=O)C2CCC2)C(F)(F)F)c2cc(F)c(-c3ccccc3C(F)(F)F)nc21 [Example 525, (S)—N-(2,2,2-trifluoro-1-(5-fluoro-1-neopentyl-6-(2-(trifluoromethyl)phenyl)-1H-pyrrolo[2,3-b]pyridin-3-yl)ethyl)cyclobutanesulfonamide]
EC50 [1]: < 500 nM

N#Cc1cccc(F)c1-c1ccc2c([C@H](NS(=O)(=O)C3CCC3)C(F)(F)F)cn(C3CCOCC3)c2c1 [Example 526, (S)—N-(1-(6-(2-cyano-6-fluorophenyl)-1-(tetrahydro-2H-pyran-4-yl)-1H-indol-3-yl)-2,2,2-trifluoroethyl)cyclobutanesulfonamide]
EC50 [1]: < 500 nM

CC(C)(C)Cn1cc([C@H](NS(=O)(=O)C2CCC2)C(F)F)c2ccc(-c3c(F)cccc3C(F)(F)F)cc21 [Example 527, (S)—N-(2,2-difluoro-1-(6-(2-fluoro-6-(trifluoromethyl)phenyl)-1-neopentyl-1H-indol-3-yl)ethyl)cyclobutanesulfonamide]
EC50 [1]: < 500 nM

CC(C)(C)Cn1cc([C@H](NS(=O)(=O)C2CCC2)C(F)(F)F)c2cc(F)c(-c3cccnc3C(F)(F)F)cc21 [Example 528, (S)—N-(2,2,2-trifluoro-1-(5-fluoro-1-neopentyl-6-(2-(trifluoromethyl)pyridin-3-yl)-1H-indol-3-yl)ethyl)cyclobutanesulfonamide]
EC50 [1]: < 500 nM

CC(C)(C)Cn1cc([C@H](NS(=O)(=O)C2CCC2)C(F)(F)F)c2cc(F)c(-c3cnccc3C(F)(F)F)cc21 [Example 530, (S)—N-(2,2,2-trifluoro-1-(5-fluoro-1-neopentyl-6-(4-(trifluoromethyl)pyridin-3-yl)-1H-indol-3-yl)ethyl)cyclobutanesulfonamide]
EC50 [1]: < 500 nM

CC(C)(C)Cn1cc([C@H](NS(=O)(=O)C2CCC2)C(F)F)c2cc(F)c(-c3ccccc3C(F)(F)F)nc21 [Example 533, (S)—N-(2,2-difluoro-1-(5-fluoro-1-neopentyl-6-(2-(trifluoromethyl)phenyl)-1H-pyrrolo[2,3-b]pyridin-3-yl)ethyl)cyclobutanesulfonamide]
EC50 [1]: < 500 nM

CC(C)(C)Cn1cc([C@H](NS(=O)(=O)C2CCC2)C(F)(F)F)c2ccc(-c3ccccc3C#N)nc21 [Example 534, (S)—N-(1-(6-(2-cyanophenyl)-1-neopentyl-1H-pyrrolo[2,3-b]pyridin-3-yl)-2,2,2-trifluoroethyl)cyclobutanesulfonamide]
EC50 [1]: < 500 nM

CC(C)(C)Cn1cc([C@H](NS(=O)(=O)C2CCC2)C(F)F)c2ccc(-c3c(C#N)cccc3C(F)(F)F)cc21 [Example 535, (S)—N-(1-(6-(2-cyano-6-(trifluoromethyl)phenyl)-1-neopentyl-1H-indol-3-yl)-2,2-difluoroethyl)cyclobutanesulfonamide]
EC50 [1]: < 500 nM

CC(C)(C)Cn1cc([C@H](NS(=O)(=O)C2CC2)C(F)(F)F)c2ccc(-c3ccccc3C(F)(F)F)c(F)c21 [Example 536, (S)—N-(2,2,2-trifluoro-1-(7-fluoro-1-neopentyl-6-(2-(trifluoromethyl)phenyl)-1H-indol-3-yl)ethyl)cyclopropanesulfonamide]
EC50 [1]: < 500 nM

CC(C)(C)Cn1cc([C@H](NS(=O)(=O)C2CCC2(F)F)C(F)(F)F)c2ccc(-c3ccccc3C(F)(F)F)cc21 (stereo partly drawn) [Example 537, 2,2-difluoro-N—((S)-2,2,2-trifluoro-1-(1-neopentyl-6-(2-(trifluoromethyl)phenyl)-1H-indol-3-yl)ethyl)cyclobutane-1-sulfonamide]
EC50 [1]: > 3000 nM

CC(C)(C)Cn1cc([C@H](NS(=O)(=O)C2CCC2)C(F)(F)F)c2cc(F)c(-c3ncccc3C#N)cc21 [Example 538, (S)—N-(1-(6-(3-cyanopyridin-2-yl)-5-fluoro-1-neopentyl-1H-indol-3-yl)-2,2,2-trifluoroethyl)cyclobutanesulfonamide]
EC50 [1]: < 500 nM

CC(C)(C)Cn1cc([C@H](NS(=O)(=O)C2CC2)C(F)F)c2ccc(-c3ccccc3C(F)(F)F)cc21 [Example 541, (S)—N-(2,2-difluoro-1-(1-neopentyl-6-(2-(trifluoromethyl)phenyl)-1H-indol-3-yl)ethyl)cyclopropanesulfonamide]
EC50 [1]: < 500 nM

CC(C)(C)Cn1cc([C@H](NS(=O)(=O)C2CC2)C(F)F)c2cc(F)c(-c3ccccc3C(F)(F)F)cc21 [Example 542, (S)—N-(2,2-difluoro-1-(5-fluoro-1-neopentyl-6-(2-(trifluoromethyl)phenyl)-1H-indol-3-yl)ethyl)cyclopropanesulfonamide]
EC50 [1]: < 500 nM

CC(C)(C)Cn1cc([C@H](NS(=O)(=O)C2CC2)C(F)F)c2ccc(-c3c(F)cccc3C(F)(F)F)cc21 [Example 543, (S)—N-(2,2-difluoro-1-(6-(2-fluoro-6-(trifluoromethyl)phenyl)-1-neopentyl-1H-indol-3-yl)ethyl)cyclopropanesulfonamide]
EC50 [1]: < 500 nM

CC(C)(C)Cn1cc([C@H](NS(=O)(=O)C2CCC2)C(F)(F)F)c2ccc(-c3ccccc3C(F)(F)F)c(F)c21 [Example 544, (S)—N-(2,2,2-trifluoro-1-(7-fluoro-1-neopentyl-6-(2-(trifluoromethyl)phenyl)-1H-indol-3-yl)ethyl)cyclobutanesulfonamide]
EC50 [1]: < 500 nM

CC(C)(C)Cn1cc([C@H](NS(=O)(=O)C2CC2)C(F)F)c2ccc(-c3c(C#N)cccc3C(F)(F)F)cc21 [Example 545, (S)—N-(1-(6-(2-cyano-6-(trifluoromethyl)phenyl)-1-neopentyl-1H-indol-3-yl)-2,2-difluoroethyl)cyclopropanesulfonamide]
EC50 [1]: < 500 nM

CC(C)(C)Cn1cc([C@H](NS(=O)(=O)C2CC2)C(F)F)c2cc(F)c(-c3ccccc3C(F)(F)F)nc21 [Example 546, (S)—N-(2,2-difluoro-1-(5-fluoro-1-neopentyl-6-(2-(trifluoromethyl)phenyl)-1H-pyrrolo[2,3-b]pyridin-3-yl)ethyl)cyclopropanesulfonamide]
EC50 [1]: < 500 nM

CC(C)(C)Cn1cc([C@H](NS(=O)(=O)C2CC2)C(F)F)c2ccc(-c3ccccc3C(F)(F)F)nc21 [Example 547, (S)—N-(2,2-difluoro-1-(1-neopentyl-6-(2-(trifluoromethyl)phenyl)-1H-pyrrolo[2,3-b]pyridin-3-yl)ethyl)cyclopropanesulfonamide]
EC50 [1]: < 500 nM

[2H][C@](NS(=O)(=O)C1CC1)(c1cn(CC(C)(C)C)c2cc(-c3ccccc3C(F)(F)F)ccc12)C(F)F [Example 550, (S)—N-(2,2-difluoro-1-(1-neopentyl-6-(2-(trifluoromethyl)phenyl)-1H-indol-3-yl)ethyl-1-d)cyclopropanesulfonamide]
EC50 [1]: < 500 nM

CC(C)(C)Cn1cc([C@H](NS(=O)(=O)C2CC2)C(F)F)c2ccc(-c3ccc(F)cc3C(F)(F)F)cc21 [Example 551, (S)—N-(2,2-difluoro-1-(6-(4-fluoro-2-(trifluoromethyl)phenyl)-1-neopentyl-1H-indol-3-yl)ethyl)cyclopropanesulfonamide]
EC50 [1]: < 500 nM

CC(C)(C)Cn1cc([C@H](NS(=O)(=O)C2CCC2)C(F)F)c2ccc(-c3ccccc3C(F)(F)F)c(F)c21 [Example 552, (S)—N-(2,2-difluoro-1-(7-fluoro-1-neopentyl-6-(2-(trifluoromethyl)phenyl)-1H-indol-3-yl)ethyl)cyclobutanesulfonamide]
EC50 [1]: < 500 nM

CC(C)(C)Cn1cc([C@H](NS(=O)(=O)C2CC2)C(F)F)c2ccc(-c3ccccc3C(F)(F)F)c(F)c21 [Example 553, (S)—N-(2,2-difluoro-1-(7-fluoro-1-neopentyl-6-(2-(trifluoromethyl)phenyl)-1H-indol-3-yl)ethyl)cyclopropanesulfonamide]
EC50 [1]: < 500 nM

CC(C)(C)Cn1cc([C@H](NS(=O)(=O)C2CCC2)C(F)F)c2ccc(-c3ccc(F)cc3C(F)(F)F)cc21 [Example 562, (S)—N-(2,2-difluoro-1-(6-(4-fluoro-2-(trifluoromethyl)phenyl)-1-neopentyl-1H-indol-3-yl)ethyl)cyclobutanesulfonamide]
EC50 [1]: < 500 nM

[2H][C@](NS(=O)(=O)C1CCC1)(c1cn(CC(C)(C)C)c2cc(-c3ccccc3C(F)(F)F)ccc12)C(F)F [Example 563, (S)—N-(2,2-difluoro-1-(1-neopentyl-6-(2-(trifluoromethyl)phenyl)-1H-indol-3-yl)ethyl-1-d)cyclobutanesulfonamide]
EC50 [1]: < 500 nM

[2H]C([2H])(n1cc([C@H](NS(=O)(=O)C2CC2)C(F)(F)F)c2ccc(-c3ccccc3C(F)(F)F)cc21)C(C)(C)C [Example 564, (S)—N-(1-(1-(2,2-dimethylpropyl-1,1-d2)-6-(2-(trifluoromethyl)phenyl)-1H-indol-3-yl)-2,2,2-trifluoroethyl)cyclopropanesulfonamide]
EC50 [1]: < 500 nM

Reference: US20230339886A1 (University of Florida Research Foundation, Incorporated, priority 2020, published 2023)
